Values quoted from earlier work as cited in patent US12569529B2, “Natural combination products and methods for regulation of kidney and excretory system function” (Pure Care Pro LLC, priority 2018, dated 2026).

Legend:
[1] = test system: kidney proximal tubular cells; conditions: kidney proximal tubular cells in culture
[2] = test system: patients with CKD

Molecule | cisplatin-induced reactive oxygen species (ROS) [1] | cell viability ([1]; cisplatin) | ADMA levels [2]
Cc1c(C)c2c(c(C)c1O)CC[C@@](C)(CCC[C@H](C)CCC[C@H](C)CCCC(C)C)O2 [α-tocopherol] | decreased | increased | –
vitamin E | – | – | reductions
